# In US20250352512A2, “C4-S[…] DERIVATIVES AND METHODS OF USING” (priority 2022, published 2025):
# Where two headings read alike, the source gives them in different places.
# Legend:
# [1] = target: T1, ADRA2A (Homo sapiens, UniProt P08913); assay: cell-based
# T1 sequence (P08913 1-465): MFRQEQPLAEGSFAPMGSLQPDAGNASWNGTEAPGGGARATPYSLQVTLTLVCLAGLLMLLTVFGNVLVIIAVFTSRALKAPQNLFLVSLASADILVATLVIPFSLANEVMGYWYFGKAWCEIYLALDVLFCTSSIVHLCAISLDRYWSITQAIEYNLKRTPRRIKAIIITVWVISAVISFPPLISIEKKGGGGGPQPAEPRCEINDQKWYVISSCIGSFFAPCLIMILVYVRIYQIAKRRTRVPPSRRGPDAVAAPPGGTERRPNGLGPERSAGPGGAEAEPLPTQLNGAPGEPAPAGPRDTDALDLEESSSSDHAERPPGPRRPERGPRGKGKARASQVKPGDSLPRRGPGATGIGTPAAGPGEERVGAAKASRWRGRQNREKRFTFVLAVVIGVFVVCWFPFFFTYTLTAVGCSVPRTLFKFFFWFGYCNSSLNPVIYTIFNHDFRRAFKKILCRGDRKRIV
# [2] = target: AVPR1A (Homo sapiens, UniProt P37288); assay: cell-based
# Chain of AVPR1A (P37288 whole entry): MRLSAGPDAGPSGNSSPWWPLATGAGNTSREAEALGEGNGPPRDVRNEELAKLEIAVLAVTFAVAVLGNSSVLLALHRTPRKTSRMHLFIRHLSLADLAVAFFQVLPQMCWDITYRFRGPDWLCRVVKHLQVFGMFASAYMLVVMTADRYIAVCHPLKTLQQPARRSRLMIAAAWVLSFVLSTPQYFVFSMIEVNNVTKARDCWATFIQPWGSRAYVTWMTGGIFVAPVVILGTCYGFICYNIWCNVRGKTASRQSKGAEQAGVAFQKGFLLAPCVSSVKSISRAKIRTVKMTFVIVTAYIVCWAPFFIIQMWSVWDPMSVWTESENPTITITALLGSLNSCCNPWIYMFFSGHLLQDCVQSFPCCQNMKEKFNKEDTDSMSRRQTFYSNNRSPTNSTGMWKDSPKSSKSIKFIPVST
# [3] = target: T2, CHRM2 (Homo sapiens, UniProt P08172); assay: cell-based
# T2 sequence (P08172 1-466): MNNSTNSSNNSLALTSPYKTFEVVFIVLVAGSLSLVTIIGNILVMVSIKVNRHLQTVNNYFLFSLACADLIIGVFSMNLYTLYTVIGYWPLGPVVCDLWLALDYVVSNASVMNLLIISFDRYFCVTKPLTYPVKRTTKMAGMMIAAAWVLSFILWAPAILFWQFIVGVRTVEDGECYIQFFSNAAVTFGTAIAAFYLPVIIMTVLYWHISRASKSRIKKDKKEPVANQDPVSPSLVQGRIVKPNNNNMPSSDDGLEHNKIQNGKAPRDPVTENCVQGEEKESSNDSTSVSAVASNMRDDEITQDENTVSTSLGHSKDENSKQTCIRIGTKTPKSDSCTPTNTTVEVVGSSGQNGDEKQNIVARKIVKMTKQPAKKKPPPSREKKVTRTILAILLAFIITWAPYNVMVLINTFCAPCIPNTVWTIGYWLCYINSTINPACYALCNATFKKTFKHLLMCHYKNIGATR
# [4] = target: CNR1 (Homo sapiens, UniProt P21554); assay: cell-based
# Chain of CNR1 (P21554 whole entry): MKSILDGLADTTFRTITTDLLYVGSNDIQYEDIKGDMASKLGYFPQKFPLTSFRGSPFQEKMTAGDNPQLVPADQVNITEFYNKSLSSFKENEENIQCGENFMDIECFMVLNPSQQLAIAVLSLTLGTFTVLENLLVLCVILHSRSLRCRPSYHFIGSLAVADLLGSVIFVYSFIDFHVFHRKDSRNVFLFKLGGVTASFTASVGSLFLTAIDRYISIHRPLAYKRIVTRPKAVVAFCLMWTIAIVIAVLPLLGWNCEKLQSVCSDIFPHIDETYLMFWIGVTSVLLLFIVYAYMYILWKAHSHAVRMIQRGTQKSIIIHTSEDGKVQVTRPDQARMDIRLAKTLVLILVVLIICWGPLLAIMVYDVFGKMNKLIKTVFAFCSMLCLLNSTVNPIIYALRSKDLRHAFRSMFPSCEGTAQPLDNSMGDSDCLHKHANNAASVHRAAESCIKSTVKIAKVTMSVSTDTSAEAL
# [5] = target: DRD1 (Homo sapiens, UniProt P21728); assay: cell-based
# Chain of DRD1 (P21728 whole entry): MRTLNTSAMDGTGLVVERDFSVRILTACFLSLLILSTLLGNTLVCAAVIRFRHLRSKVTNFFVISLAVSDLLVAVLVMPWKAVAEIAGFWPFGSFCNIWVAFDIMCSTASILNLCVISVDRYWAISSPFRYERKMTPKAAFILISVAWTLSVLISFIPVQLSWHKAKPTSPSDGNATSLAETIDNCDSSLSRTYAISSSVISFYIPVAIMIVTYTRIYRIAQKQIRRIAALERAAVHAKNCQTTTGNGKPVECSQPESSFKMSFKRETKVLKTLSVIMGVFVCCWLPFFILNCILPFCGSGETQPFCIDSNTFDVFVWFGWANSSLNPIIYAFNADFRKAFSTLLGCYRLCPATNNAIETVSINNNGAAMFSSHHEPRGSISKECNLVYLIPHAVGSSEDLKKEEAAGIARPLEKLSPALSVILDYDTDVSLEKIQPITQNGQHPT
# [6] = target: T3, HTR1A (5-HT1A) (Homo sapiens, UniProt P08908); assay: cell-based
# T3 sequence (P08908 1-422): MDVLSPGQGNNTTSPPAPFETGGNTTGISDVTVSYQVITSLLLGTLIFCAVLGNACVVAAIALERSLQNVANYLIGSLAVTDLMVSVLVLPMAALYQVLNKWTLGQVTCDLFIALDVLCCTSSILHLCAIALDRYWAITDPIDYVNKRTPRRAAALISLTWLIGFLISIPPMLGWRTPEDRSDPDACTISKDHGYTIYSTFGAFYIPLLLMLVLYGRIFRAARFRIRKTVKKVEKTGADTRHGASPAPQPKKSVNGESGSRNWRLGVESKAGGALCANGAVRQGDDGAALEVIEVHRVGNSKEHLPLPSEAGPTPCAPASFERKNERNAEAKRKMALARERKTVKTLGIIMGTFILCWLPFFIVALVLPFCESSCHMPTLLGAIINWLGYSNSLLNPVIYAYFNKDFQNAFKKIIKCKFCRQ
# [7] = target: T3, HTR1A (5-HT1A); assay: cell-based; remark: listed apart in the source
# [8] = target: T4, HTR1B (5-HTR1B) (Homo sapiens, UniProt P28222); assay: cell-based
# T4 sequence (P28222 whole entry): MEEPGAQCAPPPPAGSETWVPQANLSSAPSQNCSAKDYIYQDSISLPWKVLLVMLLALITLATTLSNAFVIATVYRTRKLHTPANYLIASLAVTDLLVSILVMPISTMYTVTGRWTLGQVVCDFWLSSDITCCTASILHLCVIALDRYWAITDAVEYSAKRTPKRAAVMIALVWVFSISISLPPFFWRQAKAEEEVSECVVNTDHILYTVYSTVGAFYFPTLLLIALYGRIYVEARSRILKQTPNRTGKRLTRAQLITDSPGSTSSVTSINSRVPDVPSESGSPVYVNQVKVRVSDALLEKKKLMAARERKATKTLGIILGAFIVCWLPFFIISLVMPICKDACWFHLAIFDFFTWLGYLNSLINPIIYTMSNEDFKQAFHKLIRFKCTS
# [9] = target: T4, HTR1B (5-HTR1B); assay: cell-based; remark: listed apart in the source
# [10] = target: OPRD1 (Homo sapiens, UniProt P41143); assay: cell-based
# Chain of OPRD1 (P41143 whole entry): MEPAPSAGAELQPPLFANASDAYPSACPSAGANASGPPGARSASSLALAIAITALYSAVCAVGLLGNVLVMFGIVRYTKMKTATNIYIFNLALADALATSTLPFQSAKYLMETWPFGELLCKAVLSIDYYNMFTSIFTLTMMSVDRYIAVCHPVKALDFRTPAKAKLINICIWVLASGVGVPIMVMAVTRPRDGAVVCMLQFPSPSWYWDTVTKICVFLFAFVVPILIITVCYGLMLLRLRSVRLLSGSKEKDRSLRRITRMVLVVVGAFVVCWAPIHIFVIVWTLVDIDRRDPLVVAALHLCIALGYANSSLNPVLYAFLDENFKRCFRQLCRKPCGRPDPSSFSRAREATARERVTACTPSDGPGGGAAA
# [11] = target: T5, HTR3A (5-HT3A) (Homo sapiens, UniProt P46098); assay: cell-based
# T5 sequence (P46098 24-478): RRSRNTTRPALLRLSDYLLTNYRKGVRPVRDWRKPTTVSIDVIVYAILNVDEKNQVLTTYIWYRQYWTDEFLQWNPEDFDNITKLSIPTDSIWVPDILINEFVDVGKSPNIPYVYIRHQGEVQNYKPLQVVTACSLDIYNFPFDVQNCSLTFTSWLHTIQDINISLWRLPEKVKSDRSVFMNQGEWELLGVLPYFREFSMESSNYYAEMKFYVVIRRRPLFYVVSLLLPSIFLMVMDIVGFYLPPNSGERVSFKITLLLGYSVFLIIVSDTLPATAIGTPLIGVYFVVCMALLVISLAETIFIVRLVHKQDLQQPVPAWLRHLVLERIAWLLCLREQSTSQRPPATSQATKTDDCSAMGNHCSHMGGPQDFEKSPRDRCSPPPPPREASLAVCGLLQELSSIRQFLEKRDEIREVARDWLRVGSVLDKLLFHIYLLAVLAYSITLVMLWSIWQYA
# [12] = target: NMDAR (Homo sapiens, UniProt Q05586+Q13224); assay: cell-based
# Chain of NMDAR (Q13224 27-1484, other chains not shown): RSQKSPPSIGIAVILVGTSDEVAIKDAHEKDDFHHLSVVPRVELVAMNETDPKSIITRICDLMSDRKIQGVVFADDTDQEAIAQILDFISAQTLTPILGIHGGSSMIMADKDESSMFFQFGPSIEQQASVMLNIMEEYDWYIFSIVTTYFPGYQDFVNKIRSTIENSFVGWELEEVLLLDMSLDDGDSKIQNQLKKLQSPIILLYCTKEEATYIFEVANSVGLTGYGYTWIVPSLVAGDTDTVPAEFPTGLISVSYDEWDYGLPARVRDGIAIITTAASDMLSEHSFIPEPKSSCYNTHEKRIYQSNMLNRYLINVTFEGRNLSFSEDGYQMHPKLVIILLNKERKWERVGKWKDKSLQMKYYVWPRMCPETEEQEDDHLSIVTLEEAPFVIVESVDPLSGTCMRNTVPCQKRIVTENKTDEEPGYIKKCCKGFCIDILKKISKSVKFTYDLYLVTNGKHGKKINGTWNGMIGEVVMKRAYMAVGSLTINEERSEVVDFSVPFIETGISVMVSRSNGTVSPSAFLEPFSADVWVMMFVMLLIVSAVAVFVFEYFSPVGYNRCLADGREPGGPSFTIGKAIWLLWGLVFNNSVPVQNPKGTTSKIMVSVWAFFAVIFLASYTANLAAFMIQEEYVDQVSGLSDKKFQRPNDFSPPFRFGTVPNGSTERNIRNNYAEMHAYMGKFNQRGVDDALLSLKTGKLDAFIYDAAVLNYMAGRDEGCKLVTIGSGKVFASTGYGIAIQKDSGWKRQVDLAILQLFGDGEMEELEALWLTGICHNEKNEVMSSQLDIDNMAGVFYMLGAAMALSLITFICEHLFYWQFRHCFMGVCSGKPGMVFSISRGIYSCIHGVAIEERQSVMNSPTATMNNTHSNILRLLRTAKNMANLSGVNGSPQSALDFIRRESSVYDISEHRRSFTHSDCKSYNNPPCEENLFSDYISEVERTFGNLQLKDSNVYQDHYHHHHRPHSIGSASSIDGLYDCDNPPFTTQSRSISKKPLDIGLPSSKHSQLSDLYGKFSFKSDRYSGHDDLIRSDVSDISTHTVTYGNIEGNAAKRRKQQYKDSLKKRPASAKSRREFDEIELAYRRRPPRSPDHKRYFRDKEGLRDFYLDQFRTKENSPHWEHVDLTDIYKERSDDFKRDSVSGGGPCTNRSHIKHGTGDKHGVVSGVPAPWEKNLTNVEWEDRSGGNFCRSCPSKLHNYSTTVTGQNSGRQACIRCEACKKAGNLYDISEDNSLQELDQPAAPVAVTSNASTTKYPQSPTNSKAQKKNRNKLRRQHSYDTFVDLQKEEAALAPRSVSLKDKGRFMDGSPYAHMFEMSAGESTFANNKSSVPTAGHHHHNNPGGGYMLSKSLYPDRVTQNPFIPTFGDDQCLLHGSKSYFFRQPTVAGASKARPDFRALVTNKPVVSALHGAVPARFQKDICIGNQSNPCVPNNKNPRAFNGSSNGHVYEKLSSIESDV
# [13] = target: T6, 5-HT2A receptor (5-HT2AR) (Mus musculus, UniProt P35363); assay: Drug-induced Head Twitch Response (HTR) in mice; format: in vivo; details: C57BL/6-Elite mice, i.p. 1 mg/kg, 15-to-30-minute window following administration
# T6 construct: tissue Charles River; host or cells: living C57BL/6-Elite mice (neuronal receptor)
# T6 sequence (P35363 whole entry): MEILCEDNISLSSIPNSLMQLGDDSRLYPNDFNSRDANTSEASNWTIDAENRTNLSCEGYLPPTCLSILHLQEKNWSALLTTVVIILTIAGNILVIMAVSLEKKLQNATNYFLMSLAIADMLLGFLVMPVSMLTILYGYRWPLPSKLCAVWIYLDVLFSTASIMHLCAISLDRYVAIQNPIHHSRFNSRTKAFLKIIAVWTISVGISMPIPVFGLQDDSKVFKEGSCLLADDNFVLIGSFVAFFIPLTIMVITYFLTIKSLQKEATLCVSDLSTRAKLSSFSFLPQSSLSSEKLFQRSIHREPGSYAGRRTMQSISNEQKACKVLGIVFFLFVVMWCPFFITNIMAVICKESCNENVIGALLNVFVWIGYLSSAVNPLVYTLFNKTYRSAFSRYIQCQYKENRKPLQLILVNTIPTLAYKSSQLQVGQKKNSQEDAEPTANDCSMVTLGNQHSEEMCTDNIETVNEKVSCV
# [14] = ADRA2A, GPCR, AGN (agonist), read-out: EC50
# [15] = AVPR1A, GPCR, ANT (antagonist), read-out: IC50
# [16] = CHRM2, GPCR, ANT (antagonist), read-out: IC50
# [17] = CNR1, GPCR, AGN (agonist), read-out: EC50
# [18] = DRD1, GPCR, ANT (antagonist), read-out: IC50
# [19] = HTR1A, GPCR, AGN (agonist), read-out: EC50
# [20] = HTR1A, GPCR, ANT (antagonist), read-out: IC50
# [21] = HTR1B, GPCR, AGN (agonist), read-out: EC50
# [22] = HTR1B, GPCR, ANT (antagonist), read-out: IC50
# [23] = OPRD1, GPCR, AGN (agonist), read-out: EC50
# [24] = HTR3A, ion channel, OP (opener), read-out: EC50
# [25] = NMDAR, ion channel, BL (blocker), read-out: IC50
Structure (SMILES),"EC50 [1, 14] [µM]","IC50 [2, 15] [µM]","IC50 [3, 16] [µM]","EC50 [4, 17] [µM]","IC50 [5, 18] [µM]","EC50 [6, 19] [µM]","IC50 [7, 20] [µM]","EC50 [8, 21] [µM]","IC50 [9, 22] [µM]","EC50 [10, 23] [µM]","EC50 [11, 24] [µM]","IC50 [12, 25] [µM]",incidences of Head Twitch Response (HTR) relative to vehicle [13],EC50 [10] [µM],other results
CN(C)Cc1c[nH]c2cccc(O[Si](C)(C)C(C)(C)C)c12 [A(IV)],> 100,42.3,> 100,> 100,10.9,4.46,> 100,0.503,> 100,29.1,> 100,12.1,Elevated incidences of HTR,–,–
CC(C)[Si](Oc1cccc2[nH]cc(CN(C)C)c12)(C(C)C)C(C)C [A(V)],> 100,17,> 100,> 100,9.67,10.7,> 100,1.19,> 100,33.3,> 100,10.1,Elevated incidences of HTR,–,–
CN(C)CCc1c[nH]c2cccc(OC(=O)OCc3ccccc3)c12 [B(II)],–,–,–,–,–,–,–,–,–,–,–,–,–,> 100,EC50 [1]: > 100 µM; IC50 [2]: 42.6 µM; IC50 [3]: > 100 µM; EC50 [4]: > 100 µM; IC50 [5]: 5.39 µM; EC50 [6]: 13.6 µM; IC50 [7]: > 100 µM; EC50 [8]: 0.446 µM; IC50 [9]: > 100 µM; EC50 [11]: > 100 µM; IC50 [12]: 16 µM
CN(C)CCc1c[nH]c2cccc(OC(=O)OCC3CC3)c12 [B(III)],> 100,> 100,> 100,> 100,13.3,7.45,> 100,0.0618,> 100,> 100,> 100,> 100,Elevated incidences of HTR,–,–
CCCCC(=O)OCOc1cccc2[nH]cc(CCN(C)C)c12 [D(III)],> 100,> 100,> 100,> 100,32.2,28.7,> 100,0.279,> 100,> 100,> 100,> 100,Elevated incidences of HTR,–,–
CCCC(=O)OCOc1cccc2[nH]cc(CCN(C)C)c12 [D(IV)],> 100,> 100,> 100,> 100,49.5,18,> 100,0.638,> 100,53.2,> 100,> 100,–,–,–
CC(C)OC(=O)OCOc1cccc2c1c(CCN(C)C)cn2COC(=O)OC(C)C [D(XIII)],> 100,> 100,66.5,> 100,> 100,> 100,> 100,9.32,> 100,–,> 100,> 100,Elevated incidences of HTR,> 100,–
CN(C)CCc1c[nH]c2cccc(OP(=O)(Oc3ccccc3)Oc3ccccc3)c12 [F(I)],–,–,–,–,–,–,–,–,–,–,–,–,Elevated incidences of HTR,> 100,EC50 [1]: > 100 µM; IC50 [2]: > 100 µM; IC50 [3]: 42.9 µM; EC50 [4]: > 100 µM; IC50 [5]: 6.98 µM; EC50 [6]: 6.36 µM; IC50 [7]: > 100 µM; EC50 [8]: 0.0549 µM; IC50 [9]: > 100 µM; EC50 [11]: > 100 µM; IC50 [12]: > 100 µM
